Assay type in all cases: functional
The test system of experiment [1] is Helicoverpa zea. Description: Antifeedant activity against third-instar larval stage of Helicoverpa zea (corn earworm) infested compound-treated leaf assessed as reduction in feeding damage at 187 mg a.i/L after 48 hr by leaf disk assay relative to untreated control. Details: scale not given: the % may be the effect or the level left.
Experiment [2] has as its system Helicoverpa zea. Briefly: Antifeedant activity against third-instar larval stage of Helicoverpa zea (corn earworm) infested compound-treated leaf assessed as time required to stop feeding at 187 mg a.i/L after 48 hr by leaf disk assay (reference value: > 2880 min).
The test system of experiment [3] is Trichoplusia ni. Briefly: Antifeedant activity against third-instar larval stage of Trichoplusia ni (cabbage looper) infested compound-treated leaf assessed as time required to stop feeding at 187 mg a.i/L after 48 hr by leaf disk assay (reference value: > 2880 min).
Experiment [4] concerns Trichoplusia ni. Description: Antifeedant activity against third-instar larval stage of Trichoplusia ni (cabbage looper) infested compound-treated leaf assessed as reduction in feeding damage at 187 mg a.i/L after 48 hr by leaf disk assay relative to untreated control. On the set-up: scale not given: the % may be the effect or the level left.
Experiment [5] relates to Spodoptera exigua. Description: Antifeedant activity against third-instar larval stage of Spodoptera exigua infested compound-treated leaf assessed as reduction in feeding damage at 187 mg a.i/L after 48 hr by leaf disk assay relative to untreated control. On the set-up: scale not given: the % may be the effect or the level left.
For experiment [6], the system named is Spodoptera exigua. Description: Antifeedant activity against third-instar larval stage of Spodoptera exigua infested compound-treated leaf assessed as time required to stop feeding at 187 mg a.i/L after 48 hr by leaf disk assay (reference value: > 2880 min).
Experiment [7] has as its system Trichoplusia ni. Description: Antifeedant activity against third-instar larval stage of Trichoplusia ni (cabbage looper) infested compound-treated leaf assessed as reduction in feeding damage at 3341 mg a.i/L after 48 hr by leaf disk assay relative to untreated control. Details: scale not given: the % may be the effect or the level left.
The test system of experiment [8] is Plutella xylostella. Description: Antifeedant activity against third-instar larval stage of Plutella xylostella (diamondback moth) infested compound-treated leaf assessed as reduction in feeding damage at 3341 mg a.i/L after 48 hr by leaf disk assay relative to untreated control. On the set-up: scale not given: the % may be the effect or the level left.
Experiment [9] relates to Trichoplusia ni. Description: Antifeedant activity against third-instar larval stage of Trichoplusia ni (cabbage looper) infested compound-treated leaf assessed as time required to stop feeding at 3341 mg a.i/L after 48 hr by leaf disk assay (reference value: > 2880 min).
The test system of experiment [10] is Plutella xylostella. Description: Antifeedant activity against third-instar larval stage of Plutella xylostella (diamondback moth) infested compound-treated leaf assessed as time required to stop feeding at 3341 mg a.i/L after 48 hr by leaf disk assay (reference value: > 2880 min).
In experiment [11] the test system is Spodoptera exigua. Description: Antifeedant activity against third-instar larval stage of Spodoptera exigua infested compound-treated leaf assessed as reduction in feeding damage at 3341 mg a.i/L after 48 hr by leaf disk assay relative to untreated control. On the set-up: scale not given: the % may be the effect or the level left.
Experiment [12] has as its system Spodoptera exigua. Description: Antifeedant activity against third-instar larval stage of Spodoptera exigua infested compound-treated leaf assessed as time required to stop feeding at 3341 mg a.i/L after 48 hr by leaf disk assay (reference value: > 2880 min).
Experiment [13] has as its system Helicoverpa zea. Briefly: Antifeedant activity against third-instar larval stage of Helicoverpa zea (corn earworm) infested compound-treated leaf assessed as time required to stop feeding at 3341 mg a.i/L after 48 hr by leaf disk assay (reference value: > 2880 min).
Experiment [14] has as its system Helicoverpa zea. Briefly: Antifeedant activity against third-instar larval stage of Helicoverpa zea (corn earworm) infested compound-treated leaf assessed as reduction in feeding damage at 3341 mg a.i/L after 48 hr by leaf disk assay relative to untreated control. On the set-up: scale not given: the % may be the effect or the level left.

In the case of `CC(C)[C@H](C(=O)O[C@H](C#N)c1cccc(Oc2ccccc2)c1)c1ccc(Cl)cc1`, the Activity in the experiment on Helicoverpa zea [1], in the experiment with Trichoplusia ni [4] and in the experiment on Spodoptera exigua [5] was 99.9% throughout. In addition, the Time in the experiment on Helicoverpa zea [2] is 3.4 min; with Trichoplusia ni [3], 5 min; in the experiment with Spodoptera exigua [6] it was 6.4 min.

On to `CNC(=O)ON=C(C)SC` [METHOMYL], for which the Activity with Trichoplusia ni [7] is listed as 99.9%; in the experiment with Plutella xylostella [8], 98.5%; with Spodoptera exigua [11] it was 99.8%; in the experiment with Helicoverpa zea [14], 99.7%. In addition, the Time in the experiment on Trichoplusia ni [9] is 4.2 min; with Plutella xylostella [10], 3.6 min; with Spodoptera exigua [12], 5.9 min; in the experiment on Helicoverpa zea [13], 3.8 min.

The values above are taken from ChEMBL document CHEMBL3044623, “Feeding cessation effects of chlorantraniliprole, a new anthranilic diamide insecticide, in comparison with several insecticides in distinct chemical classes and mode-of-action groups” (2009).
